We go through four molecules from US5221665A, “N-substituted amides” (Boehringer Ingelheim Pharmaceuticals, Inc., priority 1991, dated 1993).

Assay [1] addresses T1, Human sputum elastase (HSE) / Human Leukocyte Elastase (HLE) (Homo sapiens, UniProt P08246).
T1 construct: Human sputum elastase (HSE ) (Elasten Products Co., Pacific, Mo.); purchased Elasten Products Co., Pacific, Mo; host or cells: human sputum
T1 sequence (P08246 30-267): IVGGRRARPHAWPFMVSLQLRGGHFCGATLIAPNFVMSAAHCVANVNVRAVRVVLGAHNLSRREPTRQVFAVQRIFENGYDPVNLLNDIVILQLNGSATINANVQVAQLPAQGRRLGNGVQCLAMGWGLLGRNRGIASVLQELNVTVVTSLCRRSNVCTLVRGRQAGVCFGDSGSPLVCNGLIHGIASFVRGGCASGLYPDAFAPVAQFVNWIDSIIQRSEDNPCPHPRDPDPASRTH
The experiment in a line: Elastase Inhibition--In Vitro Method (hydrolysis of MeO-Suc-Ala-Ala-Pro-Val-pNA, microtiter format). The assay is classed as biochemical. The following applies: for % inhib. (5 ug/mL) 0% HSA / % inhib. (5 ug/mL) 0.5% HSA: 5 ug/mL compound; for % inhib. (5 ug/mL) 0.5% HSA: 0.5% HSA added; for IC50: Table I, 0.5 mM substrate, 15 minutes pre-incubation.

The target of assay [2] is T2, human neutrophil elastase (HNE) (Homo sapiens, UniProt P08246).
T2 construct: purified preparations of human neutrophil elastase (HNE); purchased Elastin Products Co., Pacific, MO
T2 sequence (P08246 30-247 limits assumed): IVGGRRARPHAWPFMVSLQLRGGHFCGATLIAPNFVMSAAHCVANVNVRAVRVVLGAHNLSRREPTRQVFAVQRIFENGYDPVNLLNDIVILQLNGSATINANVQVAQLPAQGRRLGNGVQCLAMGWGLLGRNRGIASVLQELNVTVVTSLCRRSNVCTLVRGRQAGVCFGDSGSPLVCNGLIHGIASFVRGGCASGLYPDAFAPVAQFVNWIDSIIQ
The experiment in a line: Elastase Inhibition--Animal Model (acute hamster hemorrhage model, HNE instilled i.t.). As to conditions: compound 20 ug i.t. three to five minutes before 50 μg HNE i.t., lung lavage hemorrhage at 18 hours. The format is in vivo, Syrian Golden Hamsters. As for the experimental part: When instilled into the lungs of hamsters, purified preparations of human neutrophil elastase (HNE) will produce an emphysema like state. Acute challenge (18 hours) with 50 μg of HNE results in pulmonary hemorrhage which can be readily quantitated by measuring total RBC's (red blood count) and hemogloblin concentration of lung lavage samples.
HNE (obtained from Elastin Products Co., Pacific, MO) was diluted to 250 μg/mL in 0.9% sterile saline. Syrian Golden Hamsters, males, weighing approximately 90-130 grams, were obtained from Charles River Laboratories. The experiments described below are conducted using at least three animals per group.
Anesthesia required for the intratracheal administration of compounds and elastase was induced by the i.p. injection of Ketamine hydrochloride, 10 mg/100 gram body weight plus Xylazine, 1 mg/100 gram body weight.
Hamsters were anesthetized as described above and the trachea were surgically exposed. Test compounds were administered via 27g needle inserted directly into the trachea in 0.1 mL volume followed by 0.1 mL saline push. […]
Samples were concentrated by centrifugation (1500 rpm, 10 minutes) and brought up to 1.0 mL in saline. Homoglobin concentration was determined spectrophotometrically (540 nm) by the cyanmethemoglobin method using 200 μL sample to 2.5 mL cranmethoglobin reagent (Data Medical Associates, Arlington, Tx.).

≈ marks a conversion by molar mass, not a printed value.

In general, IC50 refers to the concentration at which inhibition is half-maximal. Higher therefore signals lower potency. As to `COc1ccc(CCN(CC(=O)NC(C(=O)C(F)(F)F)C(C)C)C(=O)[C@@H](NC(=O)OCc2ccccc2)C(C)C)cc1OC` (some centres unmarked) [3,4-Dimethoxyphenethyl; CBZ], in assay [1], the “% inhib. (5 ug/mL) 0% HSA” value is given as 95.1%, the “% inhib. (5 ug/mL) 0.5% HSA” value was determined as 87.8% and the concentration for half-maximal inhibition (IC50) came to 0.432 µg/mL (≈ 0.693 µM).
In the same order, the values of `CC(C)C(NC(=O)CN(C(=O)[C@@H](NC(=O)OCc1ccccc1)C(C)C)C1CCCC1)C(=O)C(F)(F)F` (some centres unmarked) [Cyclopentyl; CBZ] are 100%, 99.4% and 0.082 µg/mL (≈ 0.155 µM).
Regarding `CC(C)C(NC(=O)CN(C(=O)[C@@H](NC(=O)c1ccc(C(=O)NS(=O)(=O)c2ccc(Cl)cc2)cc1)C(C)C)C1CC2CCC1C2)C(=O)C(F)(F)F` (stereo partly drawn) [[[4-(4-Chlorophenyl)sulfonylaminocarbonyl]phenyl-1-oxomethyl]-L-Valyl-N-(exo-bicyclo[2,2,1]hept-2-yl)-glycyl-N-[3-(1,1,1-trifluoro-4-methyl-2-oxypentyl)] amide.], the “% inhib. (20 ug, i.t.)” value in assay [2] is 93.8%. In assay [1], the “% inhib. (5 ug/mL) 0% HSA” value was determined as 99.8%, the “% inhib. (5 ug/mL) 0.5% HSA” value is given as 99.5% and the IC50 worked out at 0.045 µg/mL (≈ 0.0607 µM).
In the case of `COc1ccc(CCN(CC(=O)NC(C(=O)C(F)(F)F)C(C)C)C(=O)[C@@H](NC(=O)c2ccc(C(=O)NS(=O)(=O)c3ccc(Cl)cc3)cc2)C(C)C)cc1OC` (stereo partly drawn) [[[4-(4-Chlorophenylsulfonylaminocarbonyl]phenyl-1-oxomethyl]-L-Valyl-N-2-(3 , 4-dimethoxy)phenethyl] glycyl-N-[3-(1,1,1-trifluoro-4-methyl-2-oxypentyl)] amide], the “% inhib. (20 ug, i.t.)” value in assay [2] was 90.2%. In assay [1], the “% inhib. (5 ug/mL) 0% HSA” value is recorded as 98.8%, the “% inhib. (5 ug/mL) 0.5% HSA” value stood at 96.3% and the half-inhibitory concentration (IC50) came out at 0.0838 µg/mL (≈ 0.103 µM).
